In patent publication US11498930B2 (BLUERAY THERAPEUTICS (SHANGHAI) CO., LTD., priority 2018, dated 2022):

Target: SHP2^E76A protein (Homo sapiens (Human), UniProt Q06124, E76A)
Experiment: SHP2 enzyme activity inhibition experiment
Type: biochemical
Settings: SHP2 enzyme activity, Tables 1.1 and 1.2; read-out: IC50
Procedure: Compound powders were dissolved in DMSO to prepare mother liquor.
During the experiment, the stock solutions of the compounds were subjected to 3-fold gradient dilution with DMSO, and 10 different test concentrations of each compound were set. […] The protein used was the activated protein SHP^2E76A with amino acid mutation at position 76 of the protein, and the substrate used was DiFMUP (Invitrogen, E12020). […] 50 µL of enzyme solution was added to the detection wells, followed by 50 µL of substrate. […] GraphPad Prism 5 was used for nonlinear regression analysis, and the curve of enzyme activity versus compound concentration was fitted by the equation Y=Bottom+(Top-Bottom)/(1+10^((Log IC50−X)*HillSlope)) to calculate the IC50 value of each compound.

Chain of SHP2^E76A protein (Q06124 whole entry E76A): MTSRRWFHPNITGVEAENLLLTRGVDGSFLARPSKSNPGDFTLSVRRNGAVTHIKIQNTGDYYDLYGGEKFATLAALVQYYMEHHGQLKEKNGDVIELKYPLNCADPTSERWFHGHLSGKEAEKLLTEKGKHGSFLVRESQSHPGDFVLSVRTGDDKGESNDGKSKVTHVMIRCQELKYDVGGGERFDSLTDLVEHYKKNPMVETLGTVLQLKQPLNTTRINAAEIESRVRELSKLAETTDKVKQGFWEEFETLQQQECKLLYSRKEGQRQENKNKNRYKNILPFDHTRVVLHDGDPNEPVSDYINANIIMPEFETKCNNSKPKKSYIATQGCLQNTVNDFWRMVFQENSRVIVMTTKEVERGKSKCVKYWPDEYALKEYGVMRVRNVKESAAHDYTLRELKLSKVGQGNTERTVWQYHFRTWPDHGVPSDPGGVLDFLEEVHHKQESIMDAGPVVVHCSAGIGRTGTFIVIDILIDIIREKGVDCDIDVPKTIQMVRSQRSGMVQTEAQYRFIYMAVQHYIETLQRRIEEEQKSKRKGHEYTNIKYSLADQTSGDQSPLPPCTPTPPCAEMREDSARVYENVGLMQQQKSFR

SMILES | IC50 [nM]
N[C@@H]1CCCC12CCN(c1ncc(-c3cccc(Cl)c3Cl)c3nncn13)CC2 [(R)-8-(8-(2,3-dichlorophenyl)-[1,2,4]triazolo[4,3-c]pyrimidin-5-yl)-8-azaspiro[4.5]decan-1-amine] | 1000 to 10000
NCCC1CCN(c2ncc(Sc3cccc(Cl)c3Cl)c3nncn23)CC1 [2-(1-(8-((2,3-dichlorophenyl)thio)-[1,2,4]triazolo[4,3-c]pyrimidin-5-yl)piperidin-4-yl)ethan-1-amine] | 1000 to 10000
N[C@H]1CCCC12CCN(c1ncc(Sc3cccc(Cl)c3Cl)c3nncn13)CC2 [(S)-8-(8-((2,3-dichlorophenyl)thio)-[1,2,4]triazolo[4,3-c]pyrimidin-5-yl)-8-azaspiro[4.5]decan-1-amine] | 1000 to 10000
N[C@@H]1CCCC12CCN(c1ncc(Sc3c(Cl)cccc3Cl)c3nncn13)CC2 [(R)-8-(8-((2,6-dichlorophenyl)thio)-[1,2,4]triazolo[4,3-c]pyrimidin-5-yl)-8-azaspiro[4.5]decan-1-amine] | 1000 to 10000
N[C@@H]1CCCC12CCN(c1ncc(Sc3cccnc3Cl)c3nccn13)CC2 [(R)-8-(8-((2-chloropyridin-3-yl)thio)imidazo[1,2-c]pyrimidin-5-yl)-8-azaspiro[4.5]decan-1-amine] | < 100
N[C@@H]1CCCC12CCN(c1ncc(Sc3ccccn3)c3nncn13)CC2 [(R)-8-(8-(pyridin-2-ylthio)-[1,2,4]triazolo[4,3-c]pyrimidin-5-yl)-8-azaspiro[4.5]decan-1-amine] | 1000 to 10000
NC1CCN(c2ncc(Sc3cccc(Cl)c3Cl)c3nccn23)CC1 [1-(8-((2,3-dichlorophenyl)thio)imidazo[1,2-c]pyrimidin-5-yl)piperidin-4-amine] | 100 to 1000
Nc1ccc(Sc2cnc(N3CCC4(CCC[C@H]4N)CC3)n3cnnc23)cc1 [(R)-8-(8-((4-aminophenyl)thio)-[1,2,4]triazolo[4,3-c]pyrimidin-5-yl)-8-azaspiro[4.5]decan-1-amine] | 1000 to 10000
N[C@@H]1CCCC12CCN(c1ncc(Sc3cccnc3)c3ncnn13)CC2 [(R)-8-(8-(pyridin-3-ylthio)-[1,2,4]triazolo[1,5-c]pyrimidin-5-yl)-8-azaspiro[4.5]decan-1-amine] | 1000 to 10000
CC1(C)COC2(CCN(c3ncc(Sc4cccc(Cl)c4Cl)c4nccn34)CC2)[C@@H]1N [(R)-8-(8-((2,3-dichlorophenyl)thio)imidazo[1,2-c]pyrimidin-5-yl)-3,3-dimethyl-1-oxa-8-azaspiro[4.5]decan-4-amine] | 100 to 1000
Cc1nccc(Sc2cnc(N3CCC4(CC3)COC[C@H]4N)n3cnnc23)c1Cl | 100 to 1000
CN(C)c1nccc(Sc2cnc(N3CCC4(CCC[C@H]4N)CC3)n3cnnc23)c1Cl [(R)-8-(8-((3-chloro-2-(dimethylamino)pyridin-4-yl)thio)-[1,2,4]triazolo[4,3-c]pyrimidin-5-yl)-8-azaspiro[4.5]decan-1-amine] | 100 to 1000
N[C@@H]1CCCC12CCN(c1ncc(Sc3ccccc3Cl)c3nccn13)CC2 [(R)-8-(8-((2-chlorophenyl)thio)imidazo[1,2-c]pyrimidin-5-yl)-8-azaspiro[4.5]decan-1-amine] | < 100
C[C@H]1OCC2(CCN(c3ncc(Sc4cccc(Cl)c4Cl)c4nncn34)CC2)[C@H]1N | 1000 to 10000
CC1(N)CCN(c2ncc(-c3cccc(Cl)c3Cl)c3nncn23)CC1 [1-(8-(2,3-dichlorophenyl)-[1,2,4]triazolo[4,3-c]pyrimidin-5-yl)-4-methylpiperidin-4-amine] | 1000 to 10000
Cc1ncccc1Sc1cnc(N2CCC3(CCC[C@H]3N)CC2)n2ccnc12 [(R)-8-(8-((2-methylpyridin-3-yl)thio)imidazo[1,2-c]pyrimidin-5-yl)-8-azaspiro[4.5]decan-1-amine] | < 100
Nc1ccc(Sc2cnc(N3CCC4(CCC[C@H]4N)CC3)n3ncnc23)c(Cl)n1 [(R)-8-(8-((6-amino-2-chloropyridin-3-yl)thio)-[1,2,4]triazolo[1,5-c]pyrimidin-5-yl)-8-azaspiro[4.5]decan-1-amine] | 1000 to 10000
C[C@H]1OCC2(CCN(c3ncc(Sc4cccc(Cl)c4Cl)c4ncnn34)CC2)[C@H]1N [(3R,4R)-8-(8-((2,3-dichlorophenyl)thio)-[1,2,4]triazolo[1,5-c]pyrimidin-5-yl)-3-methyl-2-oxa-8-azaspiro[4.5]decan-4-amine] | 1000 to 10000
COC(=O)CCSc1cnc(N2CCC3(CCC[C@H]3N)CC2)n2cnnc12 [Methyl (R)-3-((5-(1-amino-8-azaspiro[4.5]decan-8-yl)-[1,2,4]triazolo[4,3-c]pyrimidin-8-yl)thio)propionate] | 1000 to 10000
N[C@@H]1CCCC12CCN(c1ncc(Sc3ccc4c(c3)CCO4)c3nccn13)CC2 [(R)-8-(8-((2,3-dihydrobenzofuran-5-yl)thio)imidazo[1,2-c]pyrimidin-5-yl)-8-azaspiro[4.5]decan-1-amine] | 100 to 1000
Cn1ccnc1Sc1cnc(N2CCC3(CCC[C@H]3N)CC2)n2cnnc12 [(R)-8-(8-((1-methyl-1H-imidazol-2-yl)thio)-[1,2,4]triazolo[4,3-c]pyrimidin-5-yl)-8-azaspiro[4.5]decan-1-amine] | 1000 to 10000

SMILES | IC50 [nM]
Nc1ccc(Sc2cnc(N3CCC4(CCC[C@H]4N)CC3)n3ncnc23)cc1 | 1000 to 10000
NCC1(c2ccccc2)CCN(c2ncc(Sc3cccc(Cl)c3Cl)c3nccn23)CC1 [(1-(8-((2,3-dichlorophenyl)thio)imidazo[1,2-c]pyrimidin-5-yl)-4-phenylpiperidin-4-yl)methanamine] | 100 to 1000
N[C@@H]1CCCC12CCN(c1ncc(Sc3ccc(Cl)cc3)c3nncn13)CC2 [(R)-8-(8-((4-chlorophenyl)thio)-[1,2,4]triazolo[4,3-c]pyrimidin-5-yl)-8-azaspiro[4.5]decan-1-amine] | 1000 to 10000
N[C@@H]1CCCC12CCN(c1ncc(Sc3ccnc(Cl)n3)c3nccn13)CC2 [(R)-8-(8-((2-chloropyrimidin-4-yl)thio)imidazo[1,2-c]pyrimidin-5-yl)-8-azaspiro[4.5]decan-1-amine] | < 100
N[C@@H]1CCCC12CCN(c1ncc(Sc3cccc4ncsc34)c3nccn13)CC2 [(R)-8-(8-(benzo[d]thiazol-7-ylthio)imidazo[1,2-c]pyrimidin-5-yl)-8-azaspiro[4.5]decan-1-amine] | 100 to 1000
N[C@@H]1CCCC12CCN(c1ncc(Sc3ccc(Cl)cc3Cl)c3nccn13)CC2 [(R)-8-(8-((2,4-dichlorophenyl)thio)imidazo[1,2-c]pyrimidin-5-yl)-8-azaspiro[4.5]decan-1-amine] | 100 to 1000
N[C@@H]1CCCC12CCN(c1ncc(Sc3ccccc3)c3ncnn13)CC2 [(R)-8-(8-(phenylthio)-[1,2,4]triazolo[1,5-c]pyrimidin-5-yl)-8-azaspiro[4.5]decan-1-amine] | 1000 to 10000
N[C@@H]1CCCC12CCN(c1ncc(-c3cccc(Cl)c3Cl)c3nccn13)CC2 [(R)-8-(8-(2,3-dichlorophenyl)imidazo[1,2-c]pyrimidin-5-yl)-8-azaspiro[4.5]decan-1-amine] | 100 to 1000
N[C@@H]1CCCCC12CCN(c1ncc(Sc3cccc(Cl)c3Cl)c3nccn13)CC2 [(R)-3-(8-((2,3-dichlorophenyl)thio)imidazo[1,2-c]pyrimidin-5-yl)-3-azaspiro[5.5]undecan-7-amine] | 100 to 1000
C[C@H]1OCC2(CCN(c3ncc(Sc4ccnc(N)c4Cl)c4nncn34)CC2)[C@H]1N | 1000 to 10000
NC1CCN(c2ncc(Sc3cccc(Cl)c3Cl)c3nncn23)CC1 [1-(8-((2,3-dichlorophenyl)thio)-[1,2,4]triazolo[4,3-c]pyrimidin-5-yl)piperidin-4-amine] | 1000 to 10000
NC1CC2(CCN(c3ncc(Sc4cccc(Cl)c4Cl)c4nncn34)CC2)C1 [7-(8-((2,3-dichlorophenyl)thio)-[1,2,4]triazolo[4,3-c]pyrimidin-5-yl)-7-azaspiro[3.5]nonan-2-amine] | 1000 to 10000
Clc1cccc(Sc2cnc(N3CCC4(CCCN4)CC3)n3cnnc23)c1Cl [8-(8-((2,3-dichlorophenyl)thio)-[1,2,4]triazolo[4,3-c]pyrimidin-5-yl)-1,8-diazaspiro[4.5]decane] | 1000 to 10000
NCC1CCN(c2ncc(Sc3cccc(Cl)c3Cl)c3nccn23)C1 (centres unmarked) [(1-(8-((2,3-dichlorophenyl)thio)imidazo[1,2-c]pyrimidin-5-yl)pyrrolidin-3-yl)methanamine] | 100 to 1000
CC(C)c1ccccc1Sc1cnc(N2CCC3(CCC[C@H]3N)CC2)n2ccnc12 [(R)-8-(8-((2-isopropylphenyl)thio)imidazo[1,2-c]pyrimidin-5-yl)-8-azaspiro[4.5]decan-1-amine] | 100 to 1000
N[C@@H]1CCCC12CCN(c1ncc(Sc3ccnc4ccccc34)c3nncn13)CC2 [(R)-8-(8-(quinolin-4-ylthio)-[1,2,4]triazolo[4,3-c]pyrimidin-5-yl)-8-azaspiro[4.5]decan-1-amine] | < 100
CC1CN(c2ncc(Sc3cccc(Cl)c3Cl)c3nncn23)CC(C)N1 (centres unmarked) [8-((2,3-dichlorophenyl)thio)-5-(3,5-dimethylpiperazin-1-yl)-[1,2,4]triazolo[4,3-c]pyrimidine] | 1000 to 10000
N[C@@H]1CCCN(c2ncc(Sc3cccc(Cl)c3Cl)c3nccn23)CC1 [(R)-1-(8-((2,3-dichlorophenyl)thio)imidazo[1,2-c]pyrimidin-5-yl)azepan-4-amine] | 100 to 1000
CN[C@@H]1CCCC12CCN(c1ncc(Sc3cccc(Cl)c3Cl)c3nncn13)CC2 [(R)-8-(8-((2,3-dichlorophenyl)thio)-[1,2,4]triazolo[4,3-c]pyrimidin-5-yl)-N-methyl-8-azaspiro[4.5]decan-1-amine] | 1000 to 10000
CC1(N)CCN(c2ncc(Sc3cccc(Cl)c3Cl)c3ncnn23)CC1 [1-(8-((2,3-dichlorophenyl)thio)-[1,2,4]triazolo[1,5-c]pyrimidin-5-yl)-4-methylpiperidin-4-amine] | 1000 to 10000
